Literature values as cited in patent US20060275215A1, “Novel imaging agents” (priority 2003, published 2006).

Tests used:
[1] = labelled with the radioisotope 131I
[2] = system: phosphatidylserine (PS) on the outer membrane of apoptotic cells; settings: binding to phosphatidylserine on outer membrane of apoptotic cells; read-out: affinity
caspase-3 = target: T1, caspase-3 (Homo sapiens, UniProt P42574)
T1 sequence (P42574 29-175 limits assumed): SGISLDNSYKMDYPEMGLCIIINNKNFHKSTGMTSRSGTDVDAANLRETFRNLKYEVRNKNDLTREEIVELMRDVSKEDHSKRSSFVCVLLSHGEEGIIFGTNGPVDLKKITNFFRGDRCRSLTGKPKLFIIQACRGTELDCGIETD
T1 sequence (P42574 176-277 limits assumed): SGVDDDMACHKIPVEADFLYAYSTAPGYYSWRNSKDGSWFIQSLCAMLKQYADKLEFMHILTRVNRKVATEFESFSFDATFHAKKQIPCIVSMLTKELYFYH

| Compound | IC50 for caspase-3 (caspase-3) | also measured |
| --- | --- | --- |
| benzyloxycarbonyl-Val-Ala-DL-Asp(O-methyl)-fluoromethylketone [Z-VAD-fmk] | – | absolute cellular uptake [1]: low |
| Annexin-5: endogenous human protein (RMM 36 kDa) which binds to phosphatidylserine | – | Kd [2]: ~1 nM |
| CCOc1ccc(OCC(=O)O)cc1CC(=O)NC(C(=O)NC(CC(=O)O)C(=O)CSCc1c(F)cccc1Cl)C(C)C (stereo not drawn) [6A′] | low nanomolar range | – |

The next lines start with results.

| IC50 for caspase-3 (caspase-3) | Compound | also measured |
| --- | --- | --- |
| low nanomolar range | CCOc1ccc(OCC(=O)OC(C)C)cc1CC(=O)NC(C(=O)NC(CC(=O)O)C(=O)CSCc1c(F)cccc1Cl)C(C)C (stereo not drawn) [Compound 6B] | – |
| low nanomolar range | CCOc1ccc(OCC(=O)OC)cc1CC(=O)NC(C(=O)NC(CC(=O)O)C(=O)CSCc1c(F)cccc1Cl)C(C)C (stereo not drawn) [Compound 6A] | – |
| low nanomolar range | CCOc1ccc(S(C)(=O)=O)cc1CC(=O)NC(C(=O)NC(CC(=O)O)C(=O)CSCc1c(F)cccc1Cl)C(C)C (stereo not drawn) [Compound 6C] | – |
